Test results as given in patent publication US11484601B2, “Targeting M2-like tumor-associated macrophages by using melittin-based proapoptotic peptide” (TWI[…]., priority 2018, dated 2022).

Test system: M2 macrophage (RAW264.7 differentiated into M2-type with IL-4 and IL-13)
Assay: MTS cell viability assay, M2-type macrophage
Type: cell-based, mouse
Details: compared with MEL and DM1 alone
Description: More specifically, dKLA (SEQ ID NO: 2), MEL (SEQ ID NO: 1), MEL-dKLA (SEQ ID NO: 3; […]-d[KLAKLAKKLAKLAK]) peptide and 5-carboxyl tetramethylrhodamine (TMR)-conjugated dKLA, MEL and MEL-KLA peptides were purchased from GenScript (Piscataway, N.J., USA). TMR was conjugated with the amino group located at the N-terminal of the peptide. Regarding all of the peptides, 95% or greater purified peptides were used. Murine Lewis lung carcinoma (LLC) cells and macrophage RAW264.7 of mice were cultured in Dulbecco's modified Eagle's medium (DMEM; Welgene, Korea) to which 10% heat-inactivated fetal bovine serum (Welgene), 100 U/mL penicillin and 100 μg/mL streptomycin (Invitrogen, CA, USA) were added. Macrophage (RAW264.7) differentiated into M2-type was treated with IL-4 and IL-13 in the medium for 24 hours. After the treatment, the cells were cultured in a state in which serum was insufficient for 48 hours. M1-type macrophage was treated with 1 ng/mL of LPS for 24 hours to induce differentiation.
The cell viability test was measured via the MTS assay. RAW264.7 macrophage was differentiated into M1-type or M2-type macrophage which was inoculated onto a 96-well plate at 3×10^4 cells/well. The next day, the macrophage was treated with each of PBS, dKLA, MEL and MEL-dKLA. After 24 hours, the culture solution was replaced and the cell was treated with 20 μL MTS reaction solution (Promega, WI, USA), followed by reaction at 37° C. Then, […] was measured at 490 nm to measure cell viability.
The MEL-DM1 anticancer drug conjugation method and cell test method are as described above.

## MEL-DM1: melittin with N-terminal maleimide covalently bound to the free-sulfhydryl group of maytansine DM1
  M2 selective cell killing effect: higher M2 selective cell killing effect
